The molecules below were run against T1, KRAS G12C 1-169, his-tagged protein, GDP-loaded (Homo sapiens, UniProt P01116, G12C) (assay: Biochemical assay: covalent binding (modification %) to KRAS G12C by mass spectrometry). Settings: 2 hour incubation period, 8 μM compound (compounds 21-92).
T1 construct: KRAS G12C 1-169, his-tagged protein, GDP-loaded
Method: Test compounds were prepared as 10 mM stock solutions in DMSO (Fisher cat# BP-231-100). KRAS G12C 1-169, his-tagged protein, GDP-loaded was diluted to 2 μM or 0.5 μM in buffer (20 mM Hepes, 150 mM NaCl, 1 mM MgCl2). Compounds were tested for activity as follows:
Compounds were diluted to 50× final test concentration in DMSO in 96-well storage plates. Compound stock solutions were vortexed before use and observed carefully for any sign of precipitation. Dilutions were as follow: • For 100 μM final compound concentration, compounds were diluted to 5000 μM (5 μL 10 mM compound stock+5 μL DMSO and mixed well by pipetting. • For 30 μM final compound concentration, compounds were diluted to 1500 μM (3 μL 10 mM compound stock+17 μL DMSO) and mixed well by pipetting. • For 10 μM final compound concentration, compounds were diluted to 500 μM (2 μL 10 mM compound stock+38 μL DMSO) and mixed well by pipetting. 49 μL of the stock protein solution was added to each well of a 96-well PCR plate (Fisher cat#1423027). 1 μl of the diluted 50× compounds were added to appropriate wells in the PCR plate using 12-channel pipettor. Reactions were mixed carefully and thoroughly by pipetting up/down with a 200 μL multi-channel pipettor. The plate was sealed well with aluminum plate seal, and stored in drawer at room temperature for 10 minutes, 30 minutes, 2 hours or 24 hours. 5 μL of 2% formic acid (Fisher cat# A117) in de-ionized H2O was then added to each well followed by mixing with a pipette. The plate was then resealed with aluminum seal and stored on dry ice until analyzed as described below.
The above described assays were analyzed by mass spectrometry according to one of the following two procedures:
The MS instrument is set to positive polarity, 2 GHz resolution, and low mass (1700) mode and allowed to equilibrate for 30 minutes. The instrument is then calibrated, switched to acquisition mode and the appropriate method loaded.
After another 30 minute equilibration time, a blank batch (i.e., buffer) is run to ensure equipment is operating properly. The samples are thawed at 37° C. for 10 minutes, briefly centrifuged, and transfer to the bench top. Wells A1 and H12 are spiked with 1 μL 500 μM internal standard peptide, and the plates centrifuged at 2000×g for 5 minutes. The method is then run and masses of each individual well recorded.
The masses (for which integration data is desired) for each well are pasted into the platemap and exported from the analysis. Masses for the internal standards are exported as well. The data at 50 ppm is extracted for the +19 charge state, and identity of well A1 is assigned using the internal standard spike and integrated. Peak data is exported as a TOF list and the above steps are repeated individually, for the +20, 21, 22, 23, 24, and 25 charge states.
The masses and peak intensities of KRAS G12C protein species were measured using a Dionex RSLCnano system (Thermo Scientific) connected to a Q Exactive Plus mass spectrometer (Thermo Scientific).
[…] of sample was each loaded onto a Aeris™ 3.6 μm WIDEPORE C4 200 Å, LC Column 50×2.1 mm column maintained at 40° C. at a flow rate of 600 μL/min with 20% Solvent A (0.1% formic acid in H2O) and 80% Solvent B (0.1% formic acid in acetonitrile). The liquid chromatography conditions were 20% solvent B for 1 minute, 20% to 60% solvent B for 1.5 minutes, 60% to 90% solvent for 0.5 minute, 90% solvent B for 0.2 minute, 90% to 20% solvent B for 0.2 minute, and then equilibrated for 1.6 minute before the following sample injection. The flow rate was maintained at 600 μL/min throughout the sample analysis.
The mass spectrometer was operated in profile mode at a resolution of 17500, 5 microscans, using 50 msec max injection time and an AGC target of 1×10^6, and a full mass range from 800-1850 m/z was recorded. The HCD trapping gas was optimized for maximum sensitivity for intact proteins. […]
For `C=CC(=O)N1CC(N2Cc3cc(C)c(-c4cc(O)ccc4Cl)cc3C2=O)C1` [Compound 29, 2-(1-acryloylazetidin-3-yl)-6-(2-chloro-5-hydroxyphenyl)-5-methylisoindolin-1-one], the Binding % was “++ (++ indicates binding activity from 10 to 50%)”.
`C=CC(=O)N1CC(N2Cc3ccc(C(=O)N4CCC(N(C)C)C4)cc3C2=O)C1` (centres unmarked) [Compound 76, 2-(1-acryloylazetidin-3-yl)-6-(3-(dimethylamino)pyrrolidine-1-carbonyl)isoindolin-1-one] was tested, and the Binding % was “+ (+ indicates binding activity up to 10%)”.
In the case of `C=CC(=O)N1CC(N2Cc3ccc(-c4ccc(C(N)=O)cc4)cc3C2=O)C1` [Compound 81, 4-(2-(1-acryloylazetidin-3-yl)-3-oxoisoindolin-5-yl)benzamide], the Binding % was “+ (+ indicates binding activity up to 10%)”.
For `C=CC(=O)N1CC(N2Cc3ccc(-c4c(O)ccc5ccccc45)cc3C2=O)C1` [Compound 73, 2-(1-acryloylazetidin-3-yl)-6-(2-hydroxynaphthalen-1-yl)isoindolin-1-one], the Binding % was “++ (++ indicates binding activity from 10 to 50%)”.
In the case of `C=CC(=O)N1CC(N2Cc3ccc(-c4c(C)ccc5[nH]ncc45)cc3CC2=O)C1` [Compound 38, 2-(1-acryloylazetidin-3-yl)-6-(5-methyl-1H-indazol-4-yl)-1,2-dihydroisoquinolin-3(4H)-one], the Binding % was “++ (++ indicates binding activity from 10 to 50%)”.
`C=CC(=O)N1CC(N2CCc3ccc(-c4c(C)ccc5[nH]ncc45)cc3C2=O)C1` [Compound 36, 2-(1-acryloylazetidin-3-yl)-7-(5-methyl-1H-indazol-4-yl)-3,4-dihydroisoquinolin-1(2H)-one] was tested, and the Binding % was “+ (+ indicates binding activity up to 10%)”.
In the case of `C=CC(=O)N1CC(N2Cc3ccc(C(=O)N4CCC(N)C4)cc3C2=O)C1` (centres unmarked) [Compound 79, 2-(1-acryloylazetidin-3-yl)-6-(3-aminopyrrolidine-1-carbonyl)isoindolin-1-one], the Binding % was “+ (+ indicates binding activity up to 10%)”.
With `C=CC(=O)N1CC(N2Cc3cc(C#N)c(-c4cc(O)cc5ccccc45)cc3C2=O)C1` [Compound 64, 2-(1-acryloylazetidin-3-yl)-6-(3-hydroxynaphthalen-1-yl)-1-oxoisoindoline-5-carbonitrile] the Binding % was “+++ (+++ indicates binding activity greater than 50%)”.
In the case of `C=CC(=O)N1CC(N2Cc3ccc(NC(=O)c4cn[nH]c4)cc3C2=O)C1` [Compound 86, N-(2-(1-acryloylazetidin-3-yl)-3-oxoisoindolin-5-yl)-1H-pyrazole-4-carboxamide], the Binding % was “+ (+ indicates binding activity up to 10%)”.
With `C=CC(=O)N1CC(N2Cc3ccc(-c4ccccc4C(N)=O)cc3C2=O)C1` [Compound 47, 2-(2-(1-acryloylazetidin-3-yl)-3-oxoisoindolin-5-yl)benzamide] the Binding % was “+ (+ indicates binding activity up to 10%)”.
With `C=CC(=O)N1CC(N2Cc3ccc(-c4c(C)ccc5[nH]nc(N)c45)cc3C2=O)C1` [Compound 65, 2-(1-acryloylazetidin-3-yl)-6-(3-amino-5-methyl-1H-indazol-4-yl)isoindolin-1-one] the Binding % was “+++ (+++ indicates binding activity greater than 50%)”.
In the case of `C=CC(=O)N1CC(N2Cc3sc(-c4c(C)ccc5[nH]ncc45)cc3C2=O)C1` [Compound 42, 5-(1-acryloylazetidin-3-yl)-2-(5-methyl-1H-indazol-4-yl)-5,6-dihydro-4H-thieno[2,3-c]pyrrol-4-one], the Binding % was “++ (++ indicates binding activity from 10 to 50%)”.
With `C=CC(=O)N1CC(N2Cc3c(cc(-c4cc(O)cc5ccccc45)cc3C(F)(F)F)C2=O)C1` [Compound 28, 2-(1-acryloylazetidin-3-yl)-6-(3-hydroxynaphthalen-1-yl)-4-(trifluoromethyl)isoindolin-1-one] the Binding % was “++ (++ indicates binding activity from 10 to 50%)”.
In the case of `C=CC(=O)N1CC(N2Cc3ccc(-c4cc(O)ccc4Cl)cc3CC2=O)C1` [Compound 40, 2-(1-acryloylazetidin-3-yl)-6-(2-chloro-5-hydroxyphenyl)-1,2-dihydroisoquinolin-3(4H)-one], the Binding % was “+++ (+++ indicates binding activity greater than 50%)”.
`C=CC(=O)N1CC(N2Cc3ccc(-c4cccc(C(N)=O)c4)cc3C2=O)C1` [Compound 50, 3-(2-(1-acryloylazetidin-3-yl)-3-oxoisoindolin-5-yl)benzamide] was tested, and the Binding % was “+ (+ indicates binding activity up to 10%)”.
`C=CC(=O)N1CC(N2Cc3ccc(-c4c(C)ccc5cn[nH]c45)cc3CC2=O)C1` [Compound 39, 2-(1-acryloylazetidin-3-yl)-6-(6-methyl-1H-indazol-7-yl)-1,2-dihydroisoquinolin-3(4H)-one] was tested, and the Binding % was “++ (++ indicates binding activity from 10 to 50%)”.
With `C=CC(=O)N1CC(N2Cc3ccc(-c4c(C)ccc5[nH]ncc45)c(F)c3C2=O)C1` [Compound 69, 2-(1-acryloylazetidin-3-yl)-7-fluoro-6-(5-methyl-1H-indazol-4-yl)isoindolin-1-one] the Binding % was “++ (++ indicates binding activity from 10 to 50%)”.
For `C=CC(=O)N1CC(N2Cc3c(C(N)=O)cc(-c4c(C)ccc5[nH]ncc45)cc3C2=O)C1` [Compound 77, 2-(1-acryloylazetidin-3-yl)-6-(5-methyl-1H-indazol-4-yl)-1-oxoisoindoline-4-carboxamide], the Binding % was “+ (+ indicates binding activity up to 10%)”.
`C=CC(=O)N1CC(N2Cc3ccc(C(=O)Nc4cn[nH]c4)cc3C2=O)C1` [Compound 84, 2-(1-acryloylazetidin-3-yl)-3-oxo-N-(1H-pyrazol-4-yl)isoindoline-5-carboxamide] was tested, and the Binding % was “+ (+ indicates binding activity up to 10%)”.
With `C=CC(=O)N1CC(N2Cc3c(F)cc(-c4cc(O)cc5ccccc45)cc3C2=O)C1` [Compound 27, 2-(1-acryloylazetidin-3-yl)-4-fluoro-6-(3-hydroxynaphthalen-1-yl)isoindolin-1-one] the Binding % was “+++ (+++ indicates binding activity greater than 50%)”.

Same assay, conditions: 2 hour incubation period, 10 μM compound (compounds 1-20)
`C=CC(=O)N1CC(N2Cc3c(cc(-c4cc(O)ccc4Cl)cc3C(F)(F)F)C2=O)C1` [Compound 17, 2-(1-acryloylazetidin-3-yl)-6-(2-chloro-5-hydroxyphenyl)-4-(trifluoromethyl)isoindolin-1-one] was tested, and the Binding % was “++ (++ indicates binding activity from 10 to 50%)”.
For `C=CC(=O)N1CC(N2Cc3ccc(-c4c(O)cccc4F)cc3C2=O)C1` [Compound 6, 2-(1-acryloylazetidin-3-yl)-6-(2-fluoro-6-hydroxyphenyl)isoindolin-1-one], the Binding % was “+ (+ indicates binding activity up to 10%)”.
In the case of `C=CC(=O)N1CC(N2Cc3ccc(-c4cc(O)cc5ccccc45)cc3CC2=O)C1` [Compound 3, 2-(1-acryloylazetidin-3-yl)-6-(3-hydroxynaphthalen-1-yl)-1,4-dihydroisoquinolin-3(2H)-one], the Binding % was “+++ (+++ indicates binding activity greater than 50%)”.
With `C=CC(=O)N1CC(N2Cc3ccc(-c4c(C)ccc5[nH]ncc45)cc3C2=O)C1` [Compound 5, 2-(1-acryloylazetidin-3-yl)-6-(5-methyl-1H-indazol-4-yl)isoindolin-1-one] the Binding % was “++ (++ indicates binding activity from 10 to 50%)”.
In the case of `C=CC(=O)N1CC(N2Cc3cc(-c4cc(O)cc5ccccc45)ccc3C2=O)C1` [Compound 1, 2-(1-acryloylazetidin-3-yl)-5-(3-hydroxynaphthalen-1-yl)isoindolin-1-one], the Binding % was “++ (++ indicates binding activity from 10 to 50%)”.
With `C=CC(=O)N1CCC(N2Cc3ccc(-c4cc(O)cc5ccccc45)cc3C2=O)C1` (centres unmarked) [Compound 9, 2-(1-acryloylpyrrolidin-3-yl)-6-(3-hydroxynaphthalen-1-yl)isoindolin-1-one] the Binding % was “++ (++ indicates binding activity from 10 to 50%)”.

Source: patent publication US10377743B2, “Inhibitors of RAS and methods of use thereof” (Araxes Pharma LLC, priority 2016, dated 2019)
